From patent US20040093169A1, “Method of designing molecular structure of enzyme inhibitor” (TOYO SUISAN KAISHA, LTD., priority 2000, published 2004)

Tests used:
DNA polymerase = conditions: reported by Ogawa et al., Jpn. J. Cancer Res. 89, 1154-1159, 1998; cited from earlier work
[1] = biological target: HIV reverse transcriptase (Human immunodeficiency virus type 1 group M subtype B, UniProt P03366); experiment: Inhibitory activity on HIV reverse transcriptase; format: biochemical; conditions: compared with inhibitory activity on rat pol. β
Protocol: The confirmation of the inhibitory activity of nervonic acid on HIV reverse transcriptase was carried out.
Specifically, the inhibitory activity of nervonic acid on HIV reverse transcriptase was measured according to the method described in reference 8 listed below.

rat pol. β = rat pol. β (Rattus norvegicus, UniProt P06766); experiment: Inhibitory activity on rat pol. β ([3H]-dTTP incorporation, poly(dA)/oligo(dT)12-18); format: biochemical; conditions: compared among fatty acids
Protocol: The activity of rat pol. β was measured according to the method described in reference 3 listed below, by using poly(dA)/oligo(dT)12-18 (template DNA) and [^3H]-dTTP (nucleotide) as substrates and measuring radiation of [^3H]-dTTP incorporated in the presence of nervonic acid of different concentrations.
FIG. 5 is a graph showing an inhibition curve. In FIG. 5, the vertical axis represents the activity of rat pol. β and the horizontal axis represents the concentration of nervonic acid.

SMILES	inhibitor on DNA polymerase (DNA polymerase)	inhibitory activity on HIV reverse transcriptase (inhibition curve, FIG. 15) [1]	inhibition of rat pol. β (rat pol. β)
C[C@H](CCC(=O)O)[C@H]1CC[C@H]2[C@@H]3CC[C@@H]4C[C@H](O)CC[C@]4(C)[C@H]3CC[C@]12C [lithocholic acid, 3-α-hydroxy-5β-cholanoic acid]	known as inhibitors on DNA polymerase		
CCCCCCCC/C=C\CCCCCCCCCCCCCC(=O)O [nervonic acid, cis-15-tetracosenoic acid]		substantially equal to the inhibitory activity of nervonic acid on rat pol. β	one of the fatty acids which most strongly inhibit rat pol. β
